Source: patent US20080038290A1, “Cosmetic slimming composition containing an extract of biomass of the alga neochloris oleoabundans” (LVMH RECHERCHE, priority 2006, published 2008)
“Also recorded” adds a separate entry of the source.

Tested on: explants of adipose tissues
Assay: Assay of lipolytic activity: free fatty acids released into the culture medium from adipose tissue explants kept alive
Assay type: cell-based
Conditions: caffeine at a concentration of 0.01% (100 μg/ml)
Procedure: The different extracts are incorporated into the culture medium under the conditions described below.
After a contact time of 8 days, the activity is evaluated by assaying the fatty acids released into the culture medium.
Preparation of 9 explants of adipose tissues and keeping them alive in BEM (BIO-EC's Explants Medium)
Division of the explants into 3 batches of 3 explants: • a reference batch, in the presence of the culture medium • a batch treated with caffeine as a positive reference • a batch treated with an extract according to the invention
At D0 the explants are kept alive in 2 ml of culture medium in which the test extract is incorporated.
This treatment is repeated at D2, D4 and D6.
At D2, D4, D6 and D8 the culture medium is sampled. For each explant the media sampled at D2, D4, D6 and D8 are combined in the same tube and stored at −20° C. for assaying the fatty acids present in the medium.
After extraction of the culture medium, the free fatty acids present therein are separated off and assayed by high performance thin layer chromatography.
The lipolytic activity is evaluated by determining the proportions of free fatty acids released into the culture medium.

SMILES: Cn1c(=O)c2c(ncn2C)n(C)c1=O [Caffeine, caffeine]
- lipolytic effect: no longer having a lipolytic effect; also recorded: no longer active
